Type in all cases: functional, cell-based
A short description of assay [1]: Antiproliferative activity against human HL60 cells after 72 hrs MTT assay. Conditions: HL-60, 72 h.
The nature of assay [2]: Antiproliferative activity against human Bel7402 cells after 72 hrs MTT assay. Conditions: Bel-7402, 72 h. (In general: Tetrazolium dyes change colour on reduction, which living cells bring about.)
The nature of assay [3]: Antiproliferative activity against human SF763 cells after 72 hrs MTT assay. As to conditions: SF763, 72 h.
Assay [4] concerns HeLa. Kind of assay: Antiproliferative activity against human HeLa cells after 72 hrs MTT assay.
Assay [5] relates to B16. Kind of assay: Antiproliferative activity against mouse B16 cells after 72 hrs MTT assay. As to conditions: B16, 72 h.

For orientation: IC50 means the concentration that inhibits the measured activity by half. The low end stands for greater potency, the high end for weaker potency. For `C=C(C)[C@@H]1CC[C@]2(C(=O)O)CC[C@]3(C)[C@H](CC[C@@H]4[C@@]5(C)C[C@H](CO)[C@H](O)[C@@](C)(CO)[C@@H]5CC[C@]43C)[C@@H]12`, the IC50 in assay [1] worked out at 69 µM; in assay [2], 59.1 µM; in assay [3], 50.2 µM; in assay [4] it was 70.8 µM; in assay [5], 47.9 µM.
The like results for `C=C(C)[C@@H]1CC[C@]2(C(=O)O)CC[C@]3(C)[C@H](CC[C@@H]4[C@@]5(C)C[C@H](COC(C)=O)[C@H](OC(C)=O)[C@@](C)(COC(C)=O)[C@@H]5CC[C@]43C)[C@@H]12` were, in that order, 59.9 µM, 50.2 µM, 46.1 µM, 61.5 µM and 39 µM.
On to `C=C(C)[C@@H]1CC[C@]2(C(=O)OCc3ccccc3)CC[C@]3(C)[C@H](CC[C@@H]4[C@@]5(C)C[C@H](CO)[C@H](O)[C@@](C)(CO)[C@@H]5CC[C@]43C)[C@@H]12`, for which the IC50 in assay [1] amounted to 47.9 µM; in assay [2], 41.7 µM; in assay [3] it was 39.1 µM; in assay [4], 51.4 µM; in assay [5] it was 30.5 µM.
On to `C=C(C)[C@@H]1CC[C@]2(C(=O)O)CC[C@]3(C)[C@H](CC[C@@H]4[C@@]5(C)C[C@H](O)[C@H](O)[C@@](C)(CO)[C@@H]5CC[C@]43C)[C@@H]12`, for which the IC50 was 66.3 µM in assay [1]; 56.8 µM in assay [2]; 53.9 µM in assay [3]; 67.8 µM in assay [4]; 36.9 µM in assay [5].
For `C=C(C)[C@@H]1CC[C@]2(C(=O)O)CC[C@]3(C)[C@H](CC[C@@H]4[C@@]5(C)C[C@H](OC(C)=O)[C@H](OC(C)=O)[C@@](C)(COC(C)=O)[C@@H]5CC[C@]43C)[C@@H]12`, the IC50 was found to be 58.1 µM in assay [1]; 49.6 µM in assay [2]; 45.8 µM in assay [3]; 59.1 µM in assay [4]; 30.5 µM in assay [5].
As to `C=C(C)[C@@H]1CC[C@]2(C(=O)OCc3ccccc3)CC[C@]3(C)[C@H](CC[C@@H]4[C@@]5(C)C[C@H](OC(C)=O)[C@H](OC(C)=O)[C@@](C)(COC(C)=O)[C@@H]5CC[C@]43C)[C@@H]12`, the 50% inhibitory concentration (IC50) in assay [1] was 46.1 µM; in assay [2] it was 34.5 µM; in assay [3], 32.1 µM; in assay [4] it was 46 µM; in assay [5], 21.6 µM.
In the case of `C=C(C)[C@@H]1CC[C@]2(C(=O)OCc3ccccc3)CC[C@]3(C)[C@H](CC[C@@H]4[C@@]5(C)C[C@H](O)[C@H](O)[C@@](C)(CO)[C@@H]5CC[C@]43C)[C@@H]12`, the IC50 in assay [1] amounted to 49.9 µM; in assay [2] it was 39.6 µM; in assay [3], 33.5 µM; in assay [4], 50.4 µM; in assay [5], 26.4 µM.
On to `C=C(C)[C@@H]1CC[C@]2(C(=O)O)CC[C@]3(C)[C@H](CC[C@@H]4[C@@]5(C)C=C(O)C(=O)[C@@](C)(CO)[C@@H]5CC[C@]43C)[C@@H]12`, for which the IC50 in assay [1] is 22 µM; in assay [2] it was 19.6 µM; in assay [3], 14.3 µM; in assay [4] it was 20 µM; in assay [5], 11.3 µM.
For `C=C(C)[C@@H]1CC[C@]2(C(=O)O)CC[C@]3(C)[C@H](CC[C@@H]4[C@@]5(C)C=C(OC(C)=O)C(=O)[C@@](C)(COC(C)=O)[C@@H]5CC[C@]43C)[C@@H]12`, the IC50 in assay [1] stood at 29.8 µM; in assay [2] it was 25.4 µM; in assay [3] it was 18.9 µM; in assay [4], 24.1 µM; in assay [5], 15 µM.
The like results for `C=C(C)[C@@H]1CC[C@]2(C(=O)Oc3ccc(C#N)cc3)CC[C@]3(C)[C@H](CC[C@@H]4[C@@]5(C)CCC(=O)[C@@](C)(COC(C)=O)[C@@H]5CC[C@]43C)[C@@H]12` were, in that order, 11.6 µM, 9.23 µM, 9.11 µM, 11.7 µM and 9.02 µM.
With `C=C(C)[C@@H]1CC[C@]2(C(=O)NCC(=O)OC)CC[C@]3(C)[C@H](CC[C@@H]4[C@@]5(C)CCC(=O)[C@@](C)(COC(C)=O)[C@@H]5CC[C@]43C)[C@@H]12`, the IC50 in assay [1] is 19.2 µM; in assay [2] it was 15.6 µM; in assay [3], 13.6 µM; in assay [4], 17.1 µM; in assay [5] it was 10.7 µM.
In the case of `C=C(C)[C@@H]1CC[C@]2(C(=O)OCCO)CC[C@]3(C)[C@H](CC[C@@H]4[C@@]5(C)CCC(=O)[C@@](C)(COC(C)=O)[C@@H]5CC[C@]43C)[C@@H]12`, the IC50 in assay [1] amounted to 31.1 µM; in assay [2], 27.4 µM; in assay [3] it was 22.1 µM; in assay [4], 24.4 µM; in assay [5] it was 18.1 µM.
Regarding `C=C(C)[C@@H]1CC[C@]2(C(=O)N3CCOCC3)CC[C@]3(C)[C@H](CC[C@@H]4[C@@]5(C)CCC(=O)[C@@](C)(COC(C)=O)[C@@H]5CC[C@]43C)[C@@H]12`, the IC50 in assay [1] stood at 12.1 µM; in assay [2], 10.5 µM; in assay [3], 10.1 µM; in assay [4], 10.3 µM; in assay [5] it was 8.16 µM.
The like results for `C=C(C)[C@@H]1CC[C@]2(C(=O)O)CC[C@]3(C)[C@H](CC[C@@H]4[C@@]5(C)CCC(=O)[C@@](C)(COC(C)=O)[C@@H]5CC[C@]43C)[C@@H]12` were, in that order, 30.2 µM, 29.4 µM, 28.9 µM, 32.1 µM and 17.1 µM.
Turning to `C=C(C)[C@@H]1CC[C@]2(C(=O)O[C@@H]3O[C@H](CO)[C@@H](O)[C@H](O)[C@H]3O)CC[C@]3(C)[C@H](CC[C@@H]4[C@@]5(C)CCC(=O)[C@@](C)(CO)[C@@H]5CC[C@]43C)[C@@H]12`, the IC50 worked out at 26.6 µM in assay [1]; 22.1 µM in assay [2]; 21.4 µM in assay [3]; 31 µM in assay [4]; 14.7 µM in assay [5].
As for `C=CCOC(=O)[C@]12CC[C@@H](C(=C)C)[C@@H]1[C@H]1CC[C@@H]3[C@@]4(C)CCC(=O)[C@@](C)(CO)[C@@H]4CC[C@@]3(C)[C@]1(C)CC2`, the IC50 in assay [1] was 21.8 µM; in assay [2], 19 µM; in assay [3], 15.1 µM; in assay [4], 22.8 µM; in assay [5], 11.8 µM.
For the molecule `C=C(C)[C@@H]1CC[C@]2(C(=O)OCc3ccc(-c4ccccc4C#N)cc3)CC[C@]3(C)[C@H](CC[C@@H]4[C@@]5(C)CCC(=O)[C@@](C)(CO)[C@@H]5CC[C@]43C)[C@@H]12`, the IC50 in assay [1] was 14.3 µM; in assay [2], 10.3 µM; in assay [3], 10.1 µM; in assay [4] it was 15.2 µM; in assay [5], 10 µM.
The corresponding values for `C=C(C)[C@@H]1CC[C@]2(C(=O)O)CC[C@]3(C)[C@H](CC[C@@H]4[C@@]5(C)CC/C(=N\O)[C@@](C)(CO)[C@@H]5CC[C@]43C)[C@@H]12` are 36.9 µM, 32.1 µM, 31.8 µM, 40.8 µM and 23.8 µM.
The like results for `C=C(C)[C@@H]1CC[C@]2(C(=O)O)CC[C@]3(C)[C@H](CC[C@@H]4[C@@]5(C)CC/C(=N\NS(=O)(=O)c6ccc(C)cc6)[C@@](C)(CO)[C@@H]5CC[C@]43C)[C@@H]12` were, in that order, 46.3 µM, 39.4 µM, 25.2 µM, 44.3 µM and 33.3 µM.
Consider `C=C(C)[C@@H]1CC[C@]2(C(=O)OCc3ccccc3)CC[C@]3(C)[C@H](CC[C@@H]4[C@@]5(C)CC/C(=N\NS(=O)(=O)c6ccc(C)cc6)[C@@](C)(CO)[C@@H]5CC[C@]43C)[C@@H]12`, for which the IC50 in assay [1] came to 29.1 µM; in assay [2], 26.4 µM; in assay [3] it was 18.4 µM; in assay [4], 21.9 µM; in assay [5], 16.2 µM.
On to `C=C(C)[C@@H]1CC[C@]2(C(=O)OCC(=O)OCC)CC[C@]3(C)[C@H](CC[C@@H]4[C@@]5(C)CC/C(=N\O)[C@@](C)(CO)[C@@H]5CC[C@]43C)[C@@H]12`, for which the IC50 in assay [1] stood at 33.7 µM; in assay [2] it was 30.6 µM; in assay [3], 26.1 µM; in assay [4], 30 µM; in assay [5] it was 17.8 µM.
On to `C=C(C)[C@@H]1CC[C@]2(C(=O)OCC(=O)O)CC[C@]3(C)[C@H](CC[C@@H]4[C@@]5(C)CC/C(=N\O)[C@@](C)(CO)[C@@H]5CC[C@]43C)[C@@H]12`, for which the IC50 turned out to be 30.5 µM in assay [1]; 27.2 µM in assay [2]; 17.5 µM in assay [3]; 23.8 µM in assay [4]; 17.4 µM in assay [5].
The like results for `C=C(C)[C@@H]1CC[C@]2(C(=O)OCC)CC[C@]3(C)[C@H](CC[C@@H]4[C@@]5(C)CC/C(=N\O)[C@@](C)(CO)[C@@H]5CC[C@]43C)[C@@H]12` were, in that order, 31.6 µM, 30.8 µM, 28.6 µM, 31.7 µM and 17.6 µM.
On to `C=CCOC(=O)[C@]12CC[C@@H](C(=C)C)[C@@H]1[C@H]1CC[C@@H]3[C@@]4(C)CC/C(=N\O)[C@@](C)(CO)[C@@H]4CC[C@@]3(C)[C@]1(C)CC2`, for which the IC50 in assay [1] is 24.1 µM; in assay [2] it was 22.6 µM; in assay [3], 15.5 µM; in assay [4], 25 µM; in assay [5], 13.1 µM.
`COc1cccc2c1C(=O)c1c(O)c3c(c(O)c1C2=O)C[C@@](O)(C(=O)CO)C[C@@H]3O[C@H]1C[C@H](N)[C@H](O)[C@H](C)O1` [DOXORUBICIN]: the results for the IC50 in assay [2], in assay [4] and in assay [5] were 0.22 µM, 0.21 µM and 0.18 µM, respectively.
